Source: a melting point compilation (Tetko et al.; mined from patent text by program, amines drawn as free bases though some values may be those of a salt)

SMILES	melting point [°C]
Cc1c(F)cccc1Cc1c(-c2ccccc2)c2ccccn2c1C(=O)N1CCN[C@@H](CC(=O)NCC2CCOCC2)C1	147
O=C1Nc2ccc(Br)cc2C1c1ncnc2c1cnn2C1CCCC1 (stereo not given)	287 to 290
OC(CCc1ccccc1)c1cnc2sc3c(n12)CCCCCC3 (stereo not given)	123 to 124
Clc1ccc(-c2cnccn2)c(Cl)c1	131 to 132
O=C(O)CCCC(O)c1ccc(Cl)cc1 (stereo not given)	85 to 87
S=C1Nc2ccccc2Sc2ccccc21	245 to 246
CCCCC[C@@H](CNC(=O)Nc1c(OCC)ccc2c1CCCC2)c1cccc2c1OCO2	81.5 to 82.5
c1ccc(-n2c(-c3ccc(-c4ccc(-c5nc6c7ccccc7c7ccccc7c6n5-c5ccccc5)cc4)cc3)nc3c4ccccc4c4ccccc4c32)cc1	402
COc1cc(CNC(=O)c2nc3scc(COc4ccc(C(=O)O)cc4)c3c(=O)[nH]2)ccc1F	276 to 281
CC(=O)c1ccccc1-c1noc2ccccc12	108
CC(C)(C)NC(=O)c1nn(-c2ccc([N+](=O)[O-])cc2)c2c1C1CCC2C1 (stereo not given)	224 to 226
CC(=Cc1ccc(O)c(Br)c1)[N+](=O)[O-]	122 to 124
CCOC(=O)CC(NC(=O)c1ccc(C)cc1)C(=O)c1ccco1 (stereo not given)	83.5 to 84.5
Cc1ccccc1N1CCN(Cc2n[nH]c3ccccc23)CC1	135 to 136
CCc1cn2ccccc2c1S(=O)(=O)c1ccc(OCCCBr)cc1	136
O=C(O)c1ccc2oc3ncccc3c(=O)c2c1	293 to 294
COc1ccc2cc(C(=O)CCC(=O)c3ccccc3)ccc2c1	164
COc1cn(C)c(=O)c(N)n1	166 to 167
CC1(C)OCCC(=O)c2ccccc2NC1=O	146 to 148
CCCS(=O)(=O)N1CCC(c2nc3cc(-c4ccc(C(N)=O)c(F)c4)ccc3o2)CC1	222 to 225
N#CNc1cc(Cl)ccc1N1CCOCC1	305 to 308
O=[N+]([O-])c1ccc2nc3c(nc2c1)CCCC3	175 to 178

SMILES	melting point [°C]
Cc1nnc2ccc(-c3cccc(CC(=O)NC(C)C)c3)nn12	197 to 200
Cn1cc(Br)cc1C=O	123 to 124
CN1CCC2(CC1)OC(=O)c1ccccc12	147 to 148
COC(Cc1ccc(I)cc1)c1ccc(I)cc1 (stereo not given)	62 to 64
CCOC(=O)c1nsc(Br)c1O	44 to 47
CCCN(CCCCc1c[nH]c2ccc(F)cc12)C1COc2c(F)ccc(C(N)=O)c2C1 (stereo not given)	115
COc1cccc([C@H]2O[C@H](CC(=O)NCCc3oc(C(=O)O)cc3C(=O)O)C(=O)N(CC(C)(C)CO)c3ccc(Cl)cc32)c1OC	155 to 157
O=C(Nc1cccc2c(=O)cc(-c3nnnn3O)oc12)c1ccc(OCCCCc2ccccc2)cc1	238 to 240
CC(C)Cc1nn(C)c(=O)c2c(S(=O)(=O)CCCO)c(Cc3ccccc3)sc12	105 to 107
COc1ccc(CNc2nc(CCCCC(=O)O)nc3sc(C)c(C)c23)cc1Cl	156
O=C(O)CCc1cn(Cc2cc(OCc3csc(-c4ccccc4)n3)cc(OCc3csc(-c4ccccc4)n3)c2)cc1-c1ccccc1	78 to 79
CCOC(=O)c1cc(-c2ccccc2)nc2c(N)cccc12	66 to 69
COC(=O)N1CCC(=O)C(C2(NO)OCCO2)CC1 (stereo not given)	152 to 154
Cn1c(=O)c2ncn(CCCCCC(=O)O)c2n(C)c1=O	177
CCCCCCCCCCCCCCCCOC(=O)C=CC(=O)NC(N)=O	106
CCOC(=O)N1CCc2nnc(N(C)N)cc2C1	121 to 123
CC(C)CS(=O)(=O)N1C[C@@H](C)C[C@H](Nc2ncccc2-c2cnc3[nH]ccc3n2)C1	215 to 218
COC(=O)/C=C/c1ccc(CC(C)NCC(O)c2ccccc2F)cc1 (stereo not given)	111 to 116
COc1ccc(C2CCN(c3c(C)c(C)c4c(c3C)C(O)C(C)(C)O4)CC2)cc1OC (stereo not given)	140 to 142
O=C(O)COc1ccc(C(=C2CCCCCC2)c2ccc(O)cc2)cc1	170 to 171
CCS(=O)(=O)N1CCN(c2ccc(NC(=O)c3cc(=O)c4cc(OC)cc(N5CCN(C)CC5)c4o3)cc2)CC1	232 to 234

Other lines, results leading:

melting point [°C]	SMILES
217 to 218	Cn1nc(-c2ccccc2)c2cccc(NS(C)(=O)=O)c2c1=O
84 to 85	COC(=O)C(NC(C)=O)C(=O)OCCBr (stereo not given)
127 to 129	COc1ccc2c(c1)CCC1C2CCC2(C)C(NC(c3ccccc3)c3ccccc3)CCC12 (stereo not given)
58 to 60	CC(C)(C)OC(=O)N1C2CCC1CN(Cc1ccccc1)C2
130 to 133	CCCCCCCCCCCCCCCCCCOc1cccc(N(CC(=O)O)CC(=O)O)c1
84 to 86	CCOC(=O)c1c2ccc(Cl)cc2c(-c2ccccc2)n1CCN
256 to 258	Cc1cc(Cl)ccc1NC(=O)NCc1ccc2c(c1)CN(C1CCC(=O)NC1=O)C2=O (stereo not given)
137 to 138	O=C(NCc1ccc([N+](=O)[O-])cc1)N(c1ccccc1)c1ccccc1
54 to 58	C=CCOc1cccc2c1C(=O)N(C(C)(C#N)C(C)C)C2=O (stereo not given)
140 to 142	FC(F)C(F)(F)Oc1cccc(Nc2nccc(-c3c[nH]c4ccccc34)n2)c1
> 260	O=C(O)c1ccc(-c2ccc(NS(=O)(=O)C(F)(F)F)cc2)[nH]c1=O
207	CN(C)CC(=O)Nc1ccc(Cl)c(C(=O)Nc2cccc3c4c(oc23)CCCC4)c1Cl
280 to 284	Cc1cc(Cl)ncc1C(=O)Nc1ccc2c(c1)-c1c(c(C(N)=O)nn1-c1ccc(F)cc1)CC2
288 to 291	COc1cc(OS(C)(=O)=O)ccc1C1=NC2=NC=NC(=O)C2=N1
170 to 174	O=C1Nc2ccccc2OCC1(Cl)Cl
180 to 183	CC(N)C(=O)NC(Cc1ccccc1)C(=O)NCC(=O)Oc1c(Cl)c(Cl)c(Cl)c(Cl)c1Cl (stereo not given)
68 to 69	COCCc1sc(C(O)(c2nc(C)c(CCOC)s2)C(F)(F)F)nc1C
145 to 147	COc1cc(NC(=O)N2CCOCN2)c(F)cc1Cl
180 to 182	Fc1cccc(CC2(Cc3ccncc3)c3cccnc3-c3ncccc32)n1

melting point [°C]	SMILES
160 to 161	NCC(c1ccc(OCc2ccccc2)cc1)C1CCCCC1O (mixture of isomers)
87 to 88	CCOC(=O)CC(NCc1ccccc1)=C(C(C)=O)C(=O)OCC
108 to 110	O=C(O)C(=O)c1cc(Cl)c(OCCOc2ccc3ccccc3c2)c(Cl)c1
197 to 200	CC(=O)N1CCc2cc(-c3ccc4c(c3)CC[C@H]3N(C)C(=O)CC[C@]43C)ccc21
120 to 121	COC1CCC2C3CCc4cc(O)c(C=O)cc4C3CCC12C (stereo not given)
183 to 184	c1ccc(COc2cccc3c2nc2n3CCCO2)cc1
116	CC(=O)N1CCc2cc(C(O)CN(Cc3ccccc3)Cc3ccccc3)ccc21 (stereo not given)
178 to 182	NNC(=O)CSc1nc(Cl)cc(NCc2ccc(Cl)cc2)n1
151	Cn1cncc1C(CC#N)(c1ccc(Cl)cc1)c1ccc2c(c1)c(-c1cccc(Cl)c1)cc(=O)n2C (stereo not given)
80	C=Cc1cccc(N)c1
113	NCCNc1cc(Cl)cc(NCCN)c1[N+](=O)[O-]
150	Cc1ccc(-c2cc3c4cc(C)ccc4n(C)c3n(C)c2=O)c(C)c1
119 to 121	CCOC(=O)c1ccc(NC(=O)CCc2ccc3ccccc3c2)cc1
103 to 105	CN(C)S(=O)(=O)c1cc(C(=O)Cl)ccc1Cl
275 to 278	O=c1[nH]nc(-c2cc(C(F)(F)F)cc(C(F)(F)F)c2)n1-c1cc(Cl)ccc1O
255	COc1ccc(-n2ncc(-c3ccc(C=Cc4ccc(-c5nc6ccccc6o5)cc4)cc3)n2)cc1
118 to 119	CCOC(=O)c1cc(C)c2c(c1)c1ccccc1n2Cc1ccccc1
101 to 104	CC(C)(C)OC(=O)N1CCN(c2ccc(N3CC(CN=[N+]=[N-])OC3=O)cc2F)CC1 (stereo not given)
231 to 233	COc1ccc(N=Nc2ccc(O)c(C(N)=O)c2)cc1

melting point [°C]	SMILES
> 230	CSc1nn2c(N)cc(C)nc2c1S(=O)(=O)c1ccc(I)cc1
207	COc1ccncc1-c1ccc(OC2SCC(O)C(O)C2O)cn1 (stereo not given)
165 to 167	COc1cccc(F)c1-c1ccc(NC(=O)OC(C)(C)C)c(N)c1
243 to 245	O=C(CC(F)(F)F)NC[C@H]1CN(c2ccc3c(c2)CCCc2cn[nH]c2-3)C(=O)O1
136 to 137	CCCCOC(=O)NS(=O)(=O)CCc1c(C(F)(F)F)nn(C)c1-n1ccc2cc(Cl)cnc21
134 to 136	COC(=O)c1ccccc1C(=O)c1ccc(-n2ccnc2)cc1
137 to 140	O=C(O)c1cc(-c2ccc3c(c2)CCO3)nn(CCCc2ccccc2Cl)c1=O
204 to 206	O=C1Nc2ccc(S(=O)(=O)N3CCC[C@H]3COc3ccccc3)cc2C1=O
95 to 97	CCOC(=O)C(Cc1ccc(Cl)cc1SCc1ccc(OC)cc1)(CC(C)C)C(=O)OCC
203 to 205	c1ccc2[nH]c(CN3CCN(c4nccs4)CC3)nc2c1
263 to 265	Cc1c(-c2ccccc2)[nH]c(=O)n1C1CCN(Cc2cccc(Br)c2)CC1
95 to 96	C=CCNC(=O)CCNc1nc(NCC=C)nc2c(C)csc12
65 to 66	OC(c1ccccn1)c1cc(F)ccc1F (stereo not given)
153 to 155	CCOc1cn(C)cc(-c2cccc(C(F)(F)F)c2)c1=S
210 to 211	CCc1c(NC(=O)c2cc3c(s2)CCCC3)cccc1-c1cc(N)c(=O)n(C)c1
220 to 221	Cc1ccc2sc(-c3ccccn3)nc(=O)c2c1
124 to 126	CC1(C)N=C(CCO)C2=C(N1)N(Cc1ccccc1)C(=O)C(N)O2 (stereo not given)
75 to 76	COc1ccc(CC(=O)Cc2ccc(OC)cc2)cc1
90 to 91	CN1C(=O)CC[C@]2(C)c3ccc(Sc4nc5cccc(Cl)c5s4)cc3CC[C@@H]12
